Series [1] in a line: Lipophilicity, log D of the compound at pH 6.5 by HPLC analysis. The series is classed as physicochemical. To be noted: buffer.
The nature of series [2]: Phototoxicity against human neonatal keratinocytes assessed as cell viability preincubated for 30 mins before 5 J/cm2 UV light irradiation for 15 mins followed by treatment medium replacement with fresh culture medium after 24 hrs by neutral red dye-based assay. To be noted: 0.25 h.
Series [3] has as its system TK6. Nature of the series: Genotoxicity in human TK6 cells incubated for 27 hrs in absence of aroclor-1254-induced rat S9 fraction by Giemsa staining dependent optical microscopy based micronucleus test. The series is classed as toxicity, cell-based. The following applies: tk6, 27 h.
Series [4] is described as follows: Intrinsic clearance in human hepatocytes assessed per million cells at 1 uM incubated for 5 to 90 mins by LC-MS/MS method. To be noted: read-out: CLH. The series is classed as ADME, cell-based, Hepatocyte.
The test system of series [5] is Salmonella typhimurium. Nature of the series: Genotoxicity in Salmonella typhimurium TA98 in absence of aroclor-1254-induced rat S9 fraction by Ames test. The class given is toxicity, organism-based. The following applies: salmonella enterica subsp. enterica serovar typhimurium.
Series [6] relates to TK6. Nature of the series: Genotoxicity in human TK6 cells incubated for 3 hrs in presence of aroclor-1254-induced rat S9 fraction followed by 27 hrs recovery period by Giemsa staining dependent optical microscopy based micronucleus test. The class given is toxicity, cell-based. To be noted: s9, 3 h.
In series [7] the test system is Salmonella typhimurium. Put plainly: Genotoxicity in Salmonella typhimurium TA100 in presence of aroclor-1254-induced rat S9 fraction by Ames test. The series is classed as toxicity, organism-based. The following applies: salmonella enterica subsp. enterica serovar typhimurium.
Series [8] in a line: Fraction unbound in human plasma at 5 uM incubated for 4 hrs at 37 degC by LC-MS/MS method. The class given is ADME, cell-free.
The target of series [9] is T1, Nuclear receptor ROR-alpha (Homo sapiens, UniProt P35398).
T1 sequence (P35398 whole entry): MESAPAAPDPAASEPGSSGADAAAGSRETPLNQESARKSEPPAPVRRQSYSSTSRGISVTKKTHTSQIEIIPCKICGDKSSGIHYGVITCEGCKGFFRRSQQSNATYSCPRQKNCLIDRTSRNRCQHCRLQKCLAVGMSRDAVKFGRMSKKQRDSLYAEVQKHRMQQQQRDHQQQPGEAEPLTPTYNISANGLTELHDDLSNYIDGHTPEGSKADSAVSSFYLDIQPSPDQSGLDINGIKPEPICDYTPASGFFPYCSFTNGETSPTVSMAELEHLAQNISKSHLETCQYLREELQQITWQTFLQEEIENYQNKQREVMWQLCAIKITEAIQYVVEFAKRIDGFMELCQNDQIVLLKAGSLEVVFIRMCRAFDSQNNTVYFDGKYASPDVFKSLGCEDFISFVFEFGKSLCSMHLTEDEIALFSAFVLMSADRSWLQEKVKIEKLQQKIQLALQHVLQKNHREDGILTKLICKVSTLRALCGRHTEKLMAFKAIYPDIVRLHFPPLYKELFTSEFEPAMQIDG
Put plainly: Inverse agonist activity at RORalpha (unknown origin) expressed in human HeLa-derived HG5LN cells transfected with the GAL4 DNA-binding domain fused to the RORalpha ligand-binding domain assessed as inhibition of transcriptional activity after 18 hrs by luminescence-based luciferase reporter gene assay. The series is classed as cell-based.

Series [10] deals with TK6. Nature of the series: Genotoxicity in human-derived p53-competent TK6 cells expressing GADD45a-dependent green fluorescent protein assessed as decrease in cell viability after 48 hrs in presence of Sprague-Dawley rat S9 fraction by FACS analysis. The class given is toxicity, cell-based. To be noted: s9, 48 h.
Series [11] has as its system Salmonella typhimurium. Put plainly: Genotoxicity in Salmonella typhimurium TA98 in presence of aroclor-1254-induced rat S9 fraction by Ames test. The series is classed as toxicity, organism-based. The following applies: salmonella enterica subsp. enterica serovar typhimurium.
The subject of series [12] is TK6. Nature of the series: Genotoxicity in human TK6 cells incubated for 3 hrs in absence of aroclor-1254-induced rat S9 fraction followed by 27 hrs recovery period by Giemsa staining dependent optical microscopy based micronucleus test. The following applies: tk6, 3 h. The series is classed as toxicity, cell-based.
Series [13] relates to Salmonella typhimurium. Nature of the series: Genotoxicity in Salmonella typhimurium TA100 in absence of aroclor-1254-induced rat S9 fraction by Ames test. The series is classed as toxicity, organism-based. The following applies: salmonella enterica subsp. enterica serovar typhimurium.
Series [14] relates to TK6. Nature of the series: Genotoxicity in human-derived p53-competent TK6 cells expressing GADD45a-dependent green fluorescent protein assessed as decrease in cell viability after 48 hrs in absence of Sprague-Dawley rat S9 fraction by FACS analysis. To be noted: tk6, 48 h. The class given is toxicity, cell-based.
The next series concerns Mus musculus. Put plainly: In vivo inverse agonist activity at RORgamma in wild type BALB/c ByJ Rj mouse model of imiquimod-induced skin inflammation model assessed as attenuation of imiquimod-induced epidermal hyperplasia at 0.01% administered topically daily for 7 days dosed 2 hrs before imiquimod administration measured on day 8 by hematoxylin and eosin staining-based histological analysis. The class given is functional.

Compound `CCc1ccc(N(CC(C)C)S(=O)(=O)c2ccc(OCC3CCOCC3)c(S(=N)(=O)CC)c2)cc1` (stereo not drawn) yielded a logD in series [1] of 5.

With `CCc1ccc(N(CC(C)C)S(=O)(=O)c2ccc(OC3CCOCC3)c(S(C)(=N)=O)c2)cc1` (stereo not drawn), the logD in [1] came to 4.4.

In turn, `CCc1ccc(N(CC(C)C)S(=O)(=O)c2ccc(OCC3CCOCC3)c(CO)c2)cc1` [GSK2981278] returned a logD in [1] of 5.9.

As for `CCc1ccc(N(CC(C)C)S(=O)(=O)c2ccc(OCC3CCOCC3)c(S(C)(=O)=O)c2)cc1`, the logD in series [1] is 5.8.

For the compound `CCc1ccc(N(CC(C)C)S(=O)(=O)c2ccc(OCC3CCOCC3)c(S(C)(=O)=NC)c2)cc1` (stereo not drawn), the logD in series [1] was 5.2.

Turning to `CCc1ccc(N(CC(C)C)S(=O)(=O)c2ccc(OC3CCN(C(C)=O)CC3)c(S(C)(=N)=O)c2)cc1` (stereo not drawn), the pH-dependent lipophilicity (logD) in [1] was found to be 3.8.

With `CCc1ccc(N(CC(C)C)S(=O)(=O)c2ccc(OCC3CCOCC3)c([S+](C)[O-])c2)cc1` (stereo not drawn), the logD in series [1] stood at 5.4.

The compound `CCc1ccc(N(CC(C)C)S(=O)(=O)c2ccc(NCC3(O)CCOCC3)c(S(C)(=N)=O)c2)cc1` (stereo not drawn) yielded a logD in series [1] of 4.1.

Consider `CCc1ccc(N(CC(C)C)S(=O)(=O)c2ccc(OCC3CCOCC3)c(CC(=O)O)c2)cc1`, for which, in series [1], the logD was 3.1.

`CCc1ccc(N(CC(C)C)S(=O)(=O)c2ccc(NCC3CCOCC3)c(S(C)(=N)=O)c2)cc1` (stereo not drawn) showed a logD in series [1] of 5.3.

For `CCc1ccc(N(CC(C)C)S(=O)(=O)c2ccc(OCC3CCOCC3)c(S(N)(=O)=O)c2)cc1`, the logD in [1] came to 5.3.

Regarding `CCc1ccc(N(CC(C)C)S(=O)(=O)c2ccc(OCC3CCOCC3)c([S@](C)(=N)=O)c2)cc1`, the Activity entry (in [2]; with TK6 [3]; with Salmonella typhimurium [5]; in the series with TK6 [6]; in the series with Salmonella typhimurium [7]; with TK6 [10]) was “Non-Toxic” each time. Moreover, the Activity result in the series on Salmonella typhimurium [11], in the series with TK6 [12], with Salmonella typhimurium [13] and with TK6 [14] was “Non-Toxic” in each case. For the same compound, the hepatocyte CLint at 1 µM in series [4] stood at 160 µL/min/1e6 cells. For the same compound, in series [8], the fraction unbound at 4 h, 5 µM amounted to 0.049. Further, the IC50 in series [9] is over 10 µM.

In turn, `CCc1ccc(N(CC(C)C)S(=O)(=O)c2ccc(N[C@@H](C)C3CCOCC3)c(S(C)(=N)=O)c2)cc1` (stereo partly drawn) displayed a logD in series [1] of 5.6.

Compound `CCc1ccc(N(CC(C)C)S(=O)(=O)c2ccc(OCC3CCOCC3)cc2)cc1` displayed a logD in [1] of 7.2.

Take `CCc1ccc(N(CC(C)C)S(=O)(=O)c2ccc(NCC3(C)CCOCC3)c(S(C)(=N)=O)c2)cc1` (stereo not drawn): in [1], the logD was found to be 5.7.

With `CCCCC(=O)O[C@]1(C(=O)CO)[C@@H](C)C[C@H]2[C@@H]3CCC4=CC(=O)C=C[C@]4(C)[C@@]3(F)[C@@H](O)C[C@@]21C` [BETAMETHASONE VALERATE], the Activity with Mus musculus amounted to 72%.

With `CCc1ccc(N(CC(C)C)S(=O)(=O)c2ccc(OCC3CCOCC3)c(S(C)(=N)=O)c2)cc1` (stereo not drawn), the logD in series [1] worked out at 4.6.

Regarding `CCc1ccc(N(CC(C)C)S(=O)(=O)c2ccc(OCC3CCOCC3)c(CC#N)c2)cc1`, in [1], the logD worked out at 6.5.

In series [1], `CCc1ccc(N(CC(C)C)S(=O)(=O)c2ccc(N[C@H](C)C3CCOCC3)c(S(C)(=N)=O)c2)cc1` (stereo partly drawn) had a logD of 5.6.

In series [1], `CCc1ccc(N(CC(C)C)S(=O)(=O)c2ccc(NCC3(CC)CCOCC3)c(S(C)(=N)=O)c2)cc1` (stereo not drawn) had a log distribution coefficient (logD) of 6.1.

On to `CCc1ccc(N(CC(C)C)S(=O)(=O)c2ccc(OC3CCN(S(C)(=O)=O)CC3)c(S(C)(=N)=O)c2)cc1` (stereo not drawn), for which the logD in series [1] worked out at 4.6.

As for `CCc1ccc(N(CC(C)C)S(=O)(=O)c2ccc(CCN3CCOCC3)c(S(C)(=N)=O)c2)cc1` (stereo not drawn), in series [1], the logD is 4.

`CCc1ccc(N(CC(C)C)S(=O)(=O)c2ccc(N3CCN(C(C)=O)CC3)c(S(C)(=N)=O)c2)cc1` (stereo not drawn) came in with a logD in [1] of 3.8.

Take `CCc1ccc(N(CC(C)C)S(=O)(=O)c2ccc(NCC3(F)CCOCC3)c(S(C)(=N)=O)c2)cc1` (stereo not drawn): the log distribution coefficient (logD) in series [1] worked out at 5.2.

`CCc1ccc(N(CC(C)C)S(=O)(=O)c2ccc(N(C)CC3CCOCC3)c(S(C)(=N)=O)c2)cc1` (stereo not drawn): the pH-dependent lipophilicity (logD) in [1] came to 5.2.

Consider `CCc1ccc(N(CC(C)C)S(=O)(=O)c2ccc(OCC3CCOCC3)c(CC(N)=O)c2)cc1`, for which the logD in series [1] amounted to 4.8.

The record behind these values is ChEMBL document CHEMBL4219169, “Sulfoximines as potent RORγ inverse agonists” (Bioorg Med Chem Lett, 2018).
